Earlier results in patent publication US20200129471A1, “USE OF CANNABIS TO TREAT FIBROMYALGIA, METHODS AND COMPOSITIONS THEREOF” (ONE WORLD CANNABIS LTD, priority 2015, published 2020).

Conditions: administered to humans for 30 days

Compound: C=C(C)[C@@H]1CCC(C)=C[C@H]1c1c(O)cc(CCCCC)cc1O [CBD, cannabidiol]
- tolerability: tolerated
